{"source": "patent US20250281473A1", "about": "“CDK Inhibitors And Their Use As Pharmaceuticals” (PRELUDE THERAPEUTICS INCORPORATED, priority 2024, published 2025)", "key": {"[1]": {"tested_on": "TMD-8 subcutaneous xenograft", "test": "TMD-8 (DLBCL) cell line-derived subcutaneous xenograft, tumor growth", "format": "in vivo", "text": "See FIG. 3 (Data represented as mean±SEM. N=8, ***P<0.001, ****P<0.0001 by Mann-Whitney U test). […]\n(§1) See FIG. 9 (Data represented as mean±SEM. N=8, *P<0.05, **P<0.001, ***P<0.001 by Mann-Whitney U test)."}, "[2]": {"tested_on": "SUDHL4 subcutaneous xenograft", "test": "SUDHL4 subcutaneous xenograft, tumor growth", "format": "in vivo", "conditions": "Formula (I) 30 mg/kg intravenously QW, BID q2h", "text": "(§2) See FIG. 3 (Data represented as mean±SEM. N=8, ***P<0.001, ****P<0.0001 by Mann-Whitney U test)."}, "[3]": {"tested_on": "Karpas-422 subcutaneous xenograft", "test": "Karpas-422 subcutaneous xenograft, tumor growth", "format": "in vivo", "conditions": "Formula (I) 30 mg/kg intravenously QW, BID q2h", "text": "as §2"}, "[4]": {"tested_on": "LY2264 (DLBCL) patient-derived xenografts (PDX)", "test": "LY2264 (DLBCL) patient-derived xenograft, tumor growth", "format": "in vivo", "text": "See FIG. 6 (Data represented as mean±SEM. N=8, *P<0.05, **P<0.001, ***P<0.001 by Mann-Whitney U test)."}, "U-2932 CDX": {"tested_on": "U-2932 CDX", "test": "U-2932 (DLBCL) CDX, tumor growth", "format": "in vivo", "text": "as §1"}, "[5]": {"tested_on": "Mino CDX model of Ibrutinib resistant MCL", "test": "Mino CDX model of Ibrutinib resistant MCL, tumor growth", "format": "in vivo", "conditions": "Formula (I) i.v. 15 mg/kg, QW BID q2h", "text": "Anti-tumor activity remains similar to the parental Mino model. Ibrutinib-resistance was induced through repeat in vivo passage and treatment with Ibrutinib. See FIG. 15 (Data represented as mean±SEM. N=7, *P<0.05, ****P<0.0001 by Mann-Whitney U test)."}, "[6]": {"tested_on": "DLBCL (SUDHL4, OCI-Ly-10, and TMD-8) and CLL (HG-3, JVM-3, and MEC-1) cell lines", "test": "Caspase 3/7-Glo assay in DLBCL and CLL cell lines", "format": "cell-based", "conditions": "6 h treatment"}, "[7]": {"tested_on": "PBMCs derived from patients with untreated or relapsed/refractory (R/R) CLL", "test": "Caspase-Glo 3/7 activity assay in CLL patient PBMCs", "format": "cell-based", "conditions": "6 h treatment; ex vivo patient PBMCs"}, "[8]": {"tested_on": "Ibrutinib-sensitive and Ibrutinib-resistant MCL cell lines", "test": "CTG assay in MCL cell lines", "format": "cell-based", "conditions": "in vitro"}}}
{"smiles": "Cc1cnc(NC(=O)[C@H]2CCC[C@@H](NC(=O)CC#N)C2)cc1-c1cc(F)c2ncn(C(C)C)c2c1", "note": "[Formula (I)]", "values": [{"measurement": "tumor growth inhibition", "setting": "[1]; Example 1, FIG. 3, Formula (I) 7.5 mg/kg intravenously QW, BID q2h", "value": 49, "unit": "%"}, {"measurement": "tumor growth inhibition", "setting": "[1]; Example 1, FIG. 3, Formula (I) 15 mg/kg intravenously QW, BID q2h", "value": 62, "unit": "%"}, {"measurement": "tumor growth inhibition", "setting": "[1]; Example 1, FIG. 3, Formula (I) 30 mg/kg intravenously QW, BID q2h", "value": 83, "unit": "%"}, {"measurement": "tumor growth inhibition", "setting": "[1]; Example 2, FIG. 5, Formula (I) monotherapy 7.5 mg/kg i.v., BID q2h QW", "value": 46, "unit": "%"}, {"measurement": "tumor growth inhibition", "setting": "[1]; Example 3, FIG. 9, Formula (I) monotherapy 7.5 mg/kg i.v. QW BID q2h", "value": 49, "unit": "%"}, {"measurement": "tumor growth inhibition", "setting": "[2]", "value": 125, "unit": "%"}, {"measurement": "tumor growth inhibition", "setting": "[3]", "value": 108, "unit": "%"}, {"measurement": "tumor growth inhibition", "setting": "[4]; Formula (I) alone, 30 mg/kg i.v. QW, BID q2h", "value": 40, "unit": "%"}, {"measurement": "tumor growth inhibition", "setting": "U-2932 CDX; Formula (I) monotherapy 7.5 mg/kg i.v. QW BID q2h", "value": 37, "unit": "%"}, {"measurement": "tumor growth inhibition (in words)", "setting": "[5]", "value": "significant tumor growth inhibition"}, {"measurement": "induction of apoptosis (caspase 3/7)", "setting": "[6]", "value": "induction of apoptosis"}, {"measurement": "induction of apoptosis (caspase 3/7)", "setting": "[7]", "value": "induction of apoptosis"}, {"measurement": "activity in CTG assay (in words)", "setting": "[8]", "value": "shows activity"}]}
{"smiles": "CC1(C)CCC(CN2CCN(c3ccc(C(=O)NS(=O)(=O)c4ccc(NCC5CCOCC5)c([N+](=O)[O-])c4)c(Oc4cnc5[nH]ccc5c4)c3)CC2)=C(c2ccc(Cl)cc2)C1", "note": "[Venetoclax, reference compound]", "values": [{"measurement": "tumor growth inhibition", "setting": "U-2932 CDX; Venetoclax 50 mg/kg QD orally", "value": 37, "unit": "%"}]}
{"smiles": "C=CC(=O)N1CCC([C@@H]2CCNc3c(C(N)=O)c(-c4ccc(Oc5ccccc5)cc4)nn32)CC1", "note": "[Zanubrutinib, reference compound]", "values": [{"measurement": "tumor growth inhibition", "setting": "[1]; Example 2, FIG. 5, Zanubrutinib 5 mg/kg, BID orally", "value": 44, "unit": "%"}, {"measurement": "tumor growth inhibition", "setting": "[4]; Zanubrutinib alone, 25 mg/kg QD orally", "value": 64, "unit": "%"}]}
